Like-named read-outs stand apart in the source and are kept apart here.
Columns and labels:
[1] = system: Notch signaling (N1VAL, N3ICD) in DND41 cells; experiment: Western blot of N1VAL and N3ICD expression in DND41 cells; assay type: cell-based, human; details: for effect on the expression of N1VAL / concentration at which expression of N1VAL and N3ICD is decreased: DND41 cells, 36 hours, Western blot; for effect on the expression of N1VAL: 0-50 μM
Procedure: In order to identify new naturally-occurring molecular agents able to modulate Notch signaling, the effects on protein expression of the activated domain of Notch1 (N1VAL), and of the intracellular domain of Notch3 (N3ICD), were evaluated in DND41 cells through
Western blotting assays, following treatment for 36 hours with increasing concentrations (0, 1, 5, 10, 20, 50 μM) of the eight molecules (A-H) previously selected. Functional biochemical screening was performed on T-ALL DND41 cells because they are notoriously sensitive to the block of Notch signaling, and characterized by the constitutive and ligand-independent activation of the Notch1 pathway and by the high expression of Notch3. This makes this cell line a useful experimental model for screening putative Notch inhibitors.
In order to investigate the activity and selectivity of action of the 12 synthetic derivatives of butein, and following the screening scheme described in the first design phase, the efficacy of these molecules was analyzed by verifying the effects of 36 hours of treatment at increasing doses on the activation of Notch signaling and on the proliferation in DND41 cells.
Laemmli Sample Buffer (161-0737; Bio-Rad Laboratories Inc., Hercules, Calif., USA) was added to each cell pellet. Cells were lysed by ultrasonic sonication and to each mixture 5% 2-mercaptoethanol (161-0710; Bio-Rad Laboratories Inc., Hercules, Calif., USA) was added. Samples were denatured at 100° C. for 5 min and protein mixtures were separated by means of Sodium Dodecyl Sulphate-Polyacrylamide Gel Electrophoresis using 8% acrylamide and transferred onto nitrocellulose membranes. After transfer, the membranes pre-saturated in 5% Blot Dry Fat Milk (1706404; Bio-Rad Laboratories Inc., Hercules, Calif., USA) were incubated for 16 hours at +4° C. with the following primary antibodies diluted at 1:1000 in 5% Dry Fat Milk (1706404; Bio-Rad Laboratories Inc., Hercules, Calif., USA): Notch1Val1744 (2421; Cell Signaling Technology, Beverly, Mass., USA), Notch3 (2889; Cell Signaling Technology, Beverly, Mass., USA) and β-actin (sc-47778; Santa Cruz Biotechnology, Santa Cruz, Calif., USA). Subsequently, filters were incubated for 1 hour at room temperature with the following secondary antibodies: anti-rabbit (sc-2004, Santa Cruz Biotechnology, Santa Cruz, Calif., USA) or anti-mouse (sc-2005, Santa Cruz Biotechnology, Santa Cruz, Calif., USA). Chemiluminescence signal detection was performed using the ECL Advanced Detection System substrate (RPN2135; E Healthcare UK Limited, Buckinghamshire, UK).

DND41 cells = experiment: MTS cell proliferation assay (IG50), DND41; assay type: cell-based, human; details: for effect on cell proliferation: doses of up to 50 μM
Procedure: In order to evaluate the biological implications of the compounds, their effect on cell proliferation/vitality was tested by determining the relative concentrations of growth inhibition (IG50) by means of the MTS cellular assay.
The cell lines DND41 (ACC 525, DSMZ, Braunschweig, GERMANY), KOPTK1 (RRID: CVCL_4965) were maintained in culture in RPMI-1640 (Gibco, Carlsbad, Calif., USA) with 10% fetal bovine serum. TALL-1 cells (ACC-521: DSMZ, Braunschweig, GERMANY) were cultured in RPMI-1640 (Gibco, Carlsbad, Calif., USA) supplemented with 20% fetal bovine serum, while HaCaT cells (ACC-771: DSMZ, Braunschweig, GERMANY) were maintained in Eagle's culture medium according to Dulbecco (Gibco, Carlsbad, Calif., USA) containing 10% fetal bovine serum. Cells were treated with the naturally-occurring compounds A-H or with compounds 1-17 for times and concentrations indicated in the text.
Cells were seeded in 96-well plates with a density of 5×10^5 cells/ml (5×10^4 cells per well) and treated for the times and the concentrations of the various compounds, as indicated in the text.
All treatments were carried out in triplicate, including control treatments. All treatment reactions contained a final concentration of 1% DMSO (D5879; Sigma-Aldrich, St Louis, Mo., USA). To quantify vitality, cells were assayed by the MTS CellTiter 96® AQueous One Solution Cell Proliferation Assay (G3580; Promega, Madison, Wis., USA). Absorbance was detected at 490 nm using the GloMax Multidetection System instrument (Promega, Madison, Wis., USA). Data were collected in the form of absorbance units (ABSs) and standardized to obtain the proliferation rate (MTS) through the equation: % cell proliferation=(ABScell culture+compound−ABSculture medium+compound/(ABScell culture+DMSO−ABSculture medium+DMSO)×100.
The 50% inhibition concentration was calculated using the GraphPad Prism software program (GraphPad Software Inc., La Jolla, Calif., USA).

[2] = Homo sapiens, 36-hour treatments in DND41 cells, mean of triplicate experiments ± S.D., Table 1, read-out: IG50 S.D.
[3] = Homo sapiens, 36-hour treatments in DND41 cells, mean of triplicate experiments ± S.D., Table 2, read-out: IG50 ± S.D.
[4] = Homo sapiens, DND41 cells, MTS assay, 36 hours of treatment, read-out: IG50 (growth inhibition)

| SMILES | IC50 (DND41 cells; [3]) [µM] | further results |
| --- | --- | --- |
| CC(C)(O)C1Cc2c(ccc3ccc(=O)oc23)O1 (stereo in doubt) [Compound E, (8R)-8-(2-hydroxypropane-2-yl)-8,9-dihydrofuran[2,3-h]chromen-2-one, reference compound] |  | effect on the expression of N1VAL [1]: did not significantly modulate; effect on cell proliferation (DND41 cells; DND41 cells): do not significantly affect cell proliferation; IC50 (DND41 cells; [2]): > 50 µM |
| COc1ccc(C(=O)/C=C/c2ccc(OC)c(OC)c2)c(OC)c1 [Compound 1, 2′,3,4,4′-tetramethoxychalcone] | 15 ± 3.04 |  |
| COc1ccc(C(=O)/C=C/c2ccc(OC)c(OC)c2)c(O)c1 [Compound 2, 2′-hydroxy-3,4,4′-trimethoxychalcone] | 31 ± 5.98 |  |
| COc1ccc(/C=C/C(=O)c2ccc(OC)cc2O)cc1 [Compound 3, 2′-hydroxy-4,4′-dimethoxychalcone] | 47.5 ± 1.14 |  |
| COc1ccc(/C=C/C(=O)c2ccc(OC)cc2OC)cc1 [Compound 4, 2′,4,4′-trimethoxychalcone] | 14.4 ± 2.56 |  |
| COc1ccc(C(=O)/C=C/c2ccc(OC)c(O)c2)c(O)c1 [Compound 5, 2′,3-dihydroxy-4,4′-dimethoxychalcone] | 36.2 ± 10.6 |  |
| COc1ccc(C(=O)/C=C/c2ccc(OC)c(OC3CCCCO3)c2)c(O)c1 (centres unmarked) [Compound 5a, 2′-hydroxy-4,4′-dimethoxy-3-(tetrahydropyran-2-yloxy) chalcone] | > 50 |  |
| COc1ccc(/C=C/C(=O)c2ccc(OC3CCCCO3)cc2O)cc1OC (centres unmarked) [Compound 6a, 2′-hydroxy-3,4-dimethoxy-4′-(tetrahydropyran-2-yloxy)chalcone] | > 50 |  |
| COc1ccc(C(=O)/C=C/c2ccc(O)c(OC)c2)c(O)c1 [Compound 7, 2′,4-dihydroxy-3,4′-dimethoxychalcone] | 33.1 ± 1.89 |  |
| COc1ccc(C(=O)/C=C/c2ccc(OC3CCCCO3)c(OC)c2)c(O)c1 (centres unmarked) [Compound 7a, 2′-hydroxy-3,4′-dimethoxy-4-(tetrahydropyran-2-yloxy)chalcone] | 24.4 ± 1.76 |  |
| COc1ccc(C(=O)/C=C/c2ccc(OC3CCCCO3)cc2)c(O)c1 (centres unmarked) [Compound 8a, 2′-hydroxy-4′-methoxy-4-(tetrahydropyran-2-yloxy)chalcone] | 48.5 ± 3.42 |  |
| COc1ccc(C(=O)CCc2ccc(O)cc2)c(O)c1 [Compound 8b, 2′,4-dihydroxy-4′-methoxydihydrochalcone] |  | IC50 (DND41 cells; 36-hour treatments in DND41 cells, mean of triplicate experiments ± S.D., Table 2, read-out: IG50 ± S.D.): > 50 µM |
| COc1ccc(C(=O)/C=C/c2ccccc2)c(O)c1 [Compound 9, 2′-hydroxy-4′-methoxychalcone] | 11.1 ± 0.59 |  |
| COc1cccc(/C=C/C(=O)c2ccc(OC)cc2O)c1 [Compound 10, 2′-hydroxy-3,4′-dimethoxychalcone] | 21.3 ± 1.72 |  |
| COc1ccc(C(=O)/C=C/c2cccc(O)c2)c(O)c1 [Compound 11, 2′,3-dihydroxy-4′-methoxychalcone] | 13.6 ± 1.76 |  |
| COc1ccc(C(=O)/C=C/c2cccc(OC3CCCCO3)c2)c(O)c1 (centres unmarked) [Compound 11a, 2′-hydroxy-4′-methoxy-3-(tetrahydropyran-2-yloxy)chalcone] | 17.4 ± 1.2 |  |

| SMILES | IC50 (DND41 cells; [3]) [µM] | further results |
| --- | --- | --- |
| COc1ccc(C(=O)/C=C/c2ccccc2O)c(O)c1 [Compound 12, 2,2′-dihydroxy-4′-methoxychalcone] | 14.2 ± 0.58 |  |
| COc1ccc(C(=O)/C=C/c2ccccc2OC)c(O)c1 [Compound 13, 2′-hydroxy-2,4′-dimethoxychalcone] | 21.8 ± 1.78 |  |
| O=C(/C=C/c1ccc(O)cc1)c1ccccc1O [Compound 14, 2′,4-dihydroxychalcone] | 16.5 ± 0.9 |  |
| O=C(/C=C/c1ccc(OC2CCCCO2)cc1)c1ccccc1O (centres unmarked) [Compound 14a, 2′-hydroxy-4-(tetrahydropyran-2-yloxy)chalcone] | 48.6 ± 3.42 |  |
| COc1ccccc1C(=O)/C=C/c1ccc(O)cc1 [Compound 15, 4-hydroxy-2′-methoxychalcone] | 16.8 ± 2.71 |  |
| COc1ccccc1C(=O)/C=C/c1ccc(OC2CCCCO2)cc1 (centres unmarked) [Compound 15a, 2′-methoxy-4-(tetrahydropyran-2-yloxy)chalcone] | 31.5 ± 1.46 |  |
| COc1ccc(C(=O)/C=C/c2ccc(O)cc2)c(OC)c1 [Compound 16, 4-hydroxy-2′,4′-dimethoxychalcone] | 13.8 ± 0.61 | concentration at which expression of N1VAL and N3ICD is decreased [1]: 2.5 µM; IC50 (DND41 cells; [4]): > 13 µM |
| COc1ccc(C(=O)/C=C/c2ccc(OC3CCCCO3)cc2)c(OC)c1 (centres unmarked) [Compound 16a, 2′,4′-dimethoxy-4-(tetrahydropyran-2-yloxy)chalcone] | 32.6 ± 0.92 |  |
| COc1ccc(C(=O)/C=C/c2ccc(O)cc2)cc1 [Compound 17, 4-hydroxy-4′-methoxychalcone] | 19.5 ± 0.56 | concentration at which expression of N1VAL and N3ICD is decreased [1]: 2.5 µM; IC50 (DND41 cells; [4]): > 13 µM |
| COc1ccc(C(=O)/C=C/c2ccc(OC3CCCCO3)cc2)cc1 (centres unmarked) [Compound 17a, 4′-methoxy-4-(tetrahydropyran-2-yloxy)chalcone] | 28.8 ± 0.29 |  |
| O=C1c2c(O)cc(O)cc2O[C@H](c2ccc(O)c(O)c2)[C@H]1O [Compound A, (2R,3R)-2-(3,4-dihydroxyphenyl)-3,5,7-trihydroxy-2,3-dihydrochromen-4-one, reference compound] |  | effect on cell proliferation (DND41 cells; DND41 cells): do not significantly affect cell proliferation; IC50 (DND41 cells; [2]): > 50 µM |
| CC(C)=CCc1c(O)ccc(C(=O)/C=C/c2ccc(O)cc2)c1O [Compound B, (E)-1-[2,4-dihydroxy-3-(3-methylbut-2-enyl)phenyl]-3-(4-hydroxyphenyl) prop-2-en-1-one, reference compound] |  | inhibitory activity of Notch ([1]; screening carried out by the present inventors): did not show any inhibitory activity; IC50 (DND41 cells; [2]): 13.9 µM; IC50 (DND41 cells; [4]): 13.9 ± 2.7 µM |
| O=C(/C=C/c1ccc(O)c(O)c1)c1ccc(O)cc1O [Compound C, (E)-1-(2,4-dihydroxyphenyl)-3-(3,4-dihydroxyphenyl)prop-2-en-1-one, reference compound] |  | IC50 (DND41 cells; [2]): 7.79 µM; IC50 (DND41 cells; [4]): 7.79 ± 1.73 µM |
| COc1c2occc2cc2ccc(=O)oc12 [Compound D, 9-methoxyfuran[3,2-g]chromen-7-one, reference compound] |  | effect on the expression of N1VAL [1]: did not significantly modulate; effect on cell proliferation (DND41 cells; DND41 cells): do not significantly affect cell proliferation; IC50 (DND41 cells; [2]): > 50 µM |
| COc1ccc2oc3cccc(O)c3c(=O)c2c1 [Compound F, 1-hydroxy-7-methoxy-9H-xanthen-9-one, reference compound] |  | effect on the expression of N1VAL [1]: did not significantly modulate; effect on cell proliferation (DND41 cells; DND41 cells): do not significantly affect cell proliferation; IC50 (DND41 cells; [2]): > 50 µM |
| O=c1c(O)c(-c2ccccc2)oc2cc(O)cc(O)c12 [Compound H, 3,5,7-trihydroxy-2-phenylchromen-4-one, reference compound] |  | IC50 (DND41 cells; [2]): 22.6 µM; IC50 (DND41 cells; [4]): 22.6 ± 1.89 µM |

From patent US11104657B2, “Notch inhibitors for use in the treatment of t-cell acute lymphoblastic leukemia” (UNIVERSITÀ DEGLI STUDI DI ROMA “LA SAPIENZA”, priority 2016, dated 2021)
